Data reported in patent US8562953B2, “Dendritic polymers and magnetic resonance imaging contrast agent employing the same” (Industrial Technology Research Institute, priority 2007, dated 2013).

Test: T1 relaxation measurements (water proton relaxivity, 20 MHz NMR spectrometer, inversion-recovery)
Type: physicochemical
Conditions: Bo = 0.47 T, per Gd^3+ ion
Method: T1 Relaxation Measurements […] […] All of the three generations of cyclosiloxane-core dendrimers (polymer (A)˜(C)) were analyzed and compared with a commercial contrast agent, namely, Magnevist. […] 1, polymers (A)˜(D) for Magnetic resonance imaging (MRI) were developed. It consists of paramagnetic gadolinium ions chelated to DTPA/benzyl-DTPA molecules which in turn were attached to the peripheral of the cyclic dendritic structure.

- Relaxivity/Gd^3+ ion (ionic) r1: 4.2 (mM · s) − 1
SMILES: CNC[C@H](O)[C@@H](O)[C@H](O)[C@H](O)CO.CNC[C@H](O)[C@@H](O)[C@H](O)[C@H](O)CO.O=C([O-])CN(CCN(CC(=O)[O-])CC(=O)O)CCN(CC(=O)[O-])CC(=O)O.[Gd+3] [Magnevist ™]
